Biological target: T1, BRN2 (Homo sapiens, UniProt P20265)
T1 sequence (P20265 1-443): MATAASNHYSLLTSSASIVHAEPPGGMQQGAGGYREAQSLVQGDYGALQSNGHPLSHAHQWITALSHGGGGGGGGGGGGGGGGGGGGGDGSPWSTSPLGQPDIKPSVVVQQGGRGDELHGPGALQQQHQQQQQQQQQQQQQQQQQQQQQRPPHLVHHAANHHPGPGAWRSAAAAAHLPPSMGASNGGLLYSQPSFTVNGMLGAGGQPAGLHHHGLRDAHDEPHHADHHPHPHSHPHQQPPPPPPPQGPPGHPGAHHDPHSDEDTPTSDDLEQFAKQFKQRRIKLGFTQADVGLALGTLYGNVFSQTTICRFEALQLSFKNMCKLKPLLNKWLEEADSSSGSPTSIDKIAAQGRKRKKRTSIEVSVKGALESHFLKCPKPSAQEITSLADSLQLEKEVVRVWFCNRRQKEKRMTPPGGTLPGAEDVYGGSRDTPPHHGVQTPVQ
Assay: Drug Affinity Responsive Target Stability (DARTS) assay
Conditions: printed in BLI binding column; 42D^ENZR lysate
Experimental: Step 2: Drug Affinity Responsive Target Stability (DARTS) Assay
This in cell assay provides a yes/no answer to direct interaction between BRN2 inhibitor and protein.
1) Prepare and place the following on ice: • Pronase • TNC 10× • 500 mM Tris-HCl (pH 8.0) • 500 mM NaCl, 100 mM CaCl2 • DMSO • Drug • 10 mL NP40+Protease inhibitor+Phosphatase inhibitor solution (can store in 4° C. and use for up to 4 weeks): • 2 mL NP40 5× • 8 mL ddH2O • 1 PhosphoSTOP™ pill • 200 uL protease inhibitor 50×
2) Remove the growth medium from the cell plate (42D^ENZR) and add 10 mL of cold PBS/vanadate.
3) Scrape the cells. Remove the PBS-cell solution and add in a falcon tube.
4) Name a new 1.5 ml Eppendorf tube and put on ice to pre-chill.
5) Centrifuge the cells at 1500 for 5 minutes at 4° C. Remove supernatant and re-suspend the cells in 600 uL NP40 lysis buffer by pipetting up and down. If the cell pellet is small use less volume, for example 300 μl)
6) Transfer the lysing cells into the pre-chilled Eppendorf tube. Incubate on ice for 20 minutes. If not continuing the DARTS on the same day, you can put the lysate in −30 and work on it later.
Preparing Cell Lysates for DARTS:
7) Centrifuge the tube at maximum speed for 25-30 minutes at 4° C.
8) Discard the pellet (either transfer the supernatant in a new tube or just take out the pellet). […]
20) The samples are ready for Western blot gel running. […]

For `O=C1/C(=N\Nc2nc3ccccc3s2)Cc2ccccc21` [7-62, (Z)-2-(2-(benzo[d]thiazol-2-yl)hydrazineylidene)-2,3-dihydro-1H-inden-1-one], the “binding observed using DARTS assay” value was “Strong binding observed using DARTS assay”.

Source: patent US20250205204A1, “Transcription Factor Brn2 Inhibitory Compounds for Use as Therapeutics” (The University of British Columbia, priority 2021, published 2025)
